{
  "source": "patent US20070225351A1",
  "about": "“Methods and compositions for controlling body weight and appetite” (priority 2002, published 2007)",
  "key": {"[1]": {"biological_target": "norepinephrine transporter (Rattus norvegicus, UniProt Q63380)", "sequence (Q63380 1-617)": "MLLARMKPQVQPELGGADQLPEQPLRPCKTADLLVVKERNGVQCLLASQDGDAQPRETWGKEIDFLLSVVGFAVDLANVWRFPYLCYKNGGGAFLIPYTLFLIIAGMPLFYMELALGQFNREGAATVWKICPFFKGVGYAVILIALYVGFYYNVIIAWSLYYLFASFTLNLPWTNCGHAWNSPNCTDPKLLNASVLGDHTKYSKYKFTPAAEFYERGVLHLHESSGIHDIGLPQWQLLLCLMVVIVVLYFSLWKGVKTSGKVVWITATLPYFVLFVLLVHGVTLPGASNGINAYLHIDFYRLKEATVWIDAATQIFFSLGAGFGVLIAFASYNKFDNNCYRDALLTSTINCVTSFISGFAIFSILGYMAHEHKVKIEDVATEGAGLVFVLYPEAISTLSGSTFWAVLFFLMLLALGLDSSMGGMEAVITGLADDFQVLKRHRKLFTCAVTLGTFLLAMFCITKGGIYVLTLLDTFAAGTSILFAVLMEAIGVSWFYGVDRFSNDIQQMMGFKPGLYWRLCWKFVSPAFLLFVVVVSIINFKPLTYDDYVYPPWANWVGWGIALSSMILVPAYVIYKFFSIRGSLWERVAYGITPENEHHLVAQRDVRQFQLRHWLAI", "conditions": "from Table 1", "experimental": "Reactions were carried out in 50 mM TRIS-HCl (pH 7.4), containing 300 mM NaCl and 5 mM KCl at 0° C. to 4° C. for 4 hours. The reaction was terminated by rapid vacuum filtration onto glass fiber filters. Radioactivity trapped in the filters was determined and compared to control values in order to ascertain the interactions of the test compound with the norepinephrine uptake site."}, "serotonin transporter": {"biological_target": "T1, serotonin transporter (Rattus norvegicus, UniProt P31652)", "T1 construct": "The receptor source was rat forebrain membrane; from tissue; host or cells: rat forebrain membranes", "T1 sequence (P31652 whole entry)": "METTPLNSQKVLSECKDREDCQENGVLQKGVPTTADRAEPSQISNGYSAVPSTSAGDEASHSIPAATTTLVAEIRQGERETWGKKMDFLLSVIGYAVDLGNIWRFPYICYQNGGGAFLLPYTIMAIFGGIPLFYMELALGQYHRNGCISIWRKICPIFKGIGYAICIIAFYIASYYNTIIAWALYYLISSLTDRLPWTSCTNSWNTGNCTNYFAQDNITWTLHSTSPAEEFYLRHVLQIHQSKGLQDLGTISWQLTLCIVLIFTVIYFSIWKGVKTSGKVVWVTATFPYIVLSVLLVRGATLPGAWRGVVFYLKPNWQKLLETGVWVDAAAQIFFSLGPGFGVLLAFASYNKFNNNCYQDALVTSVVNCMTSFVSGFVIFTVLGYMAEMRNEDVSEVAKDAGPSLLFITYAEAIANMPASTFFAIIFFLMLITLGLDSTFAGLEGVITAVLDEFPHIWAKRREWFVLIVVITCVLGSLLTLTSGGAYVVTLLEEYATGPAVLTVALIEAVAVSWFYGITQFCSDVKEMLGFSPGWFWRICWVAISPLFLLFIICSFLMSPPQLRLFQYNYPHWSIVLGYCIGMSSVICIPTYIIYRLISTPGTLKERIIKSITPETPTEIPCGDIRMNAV", "experiment": "Serotonin transporter binding assay, [3H]citalopram", "conditions": "from Table 2", "experimental": "The reference compound and positive control were (±)-desmethylimipramine. […] Reactions were carried out in 50 mM TRIS-HCl (pH 7.4) containing 120 mM NaCl and 5 mM KCl at 25° C. for 60 minutes. The reaction was terminated by rapid vacuum filtration onto glass fiber filters. Radioactivity trapped in the filters was determined using liquid scintillation spectrometry and compared to control values in order to ascertain any interactions of test compound with the serotonin transporter binding site."}, "[2]": {"experiment": "Toxicokinetic evaluation in rats", "conditions": "rat, in vivo; for AUC(0-t): Crl:CD(SD)IGS BR, po, 10 mg/kg/day, AUC0-24 h", "experimental": "For toxicokinetic evaluation, all animals were observed twice daily for mortality and moribundity. Blood samples were collected from three animals/sex/group at 0 (pre-dose), 1, 2, 4, 8 and 24 hours after dose administration on study days 0 and 87. All toxicokinetic animals were euthanized and discarded following the final blood collection (study day 88)."}, "in vivo": {"experiment": "in vivo", "assay_type": "in vivo", "conditions": "female dogs", "experimental": "Eighteen male and eighteen female beagle dogs were received from Ridglan Farms, Mt. Horeb, Wis. […] Each group consisted of four males and four females. All animals/sex/group were scheduled for the primary necropsy at the end of the 13-week treatment period.\nThe animals were observed twice daily for mortality and moribundity. Clinical examinations were performed daily at the time of dosing and approximately 1-2 and approximately 3 hours following dose administration. Detailed physical examinations were performed weekly. Clinical pathology evaluations (hematology, serum chemistry and urinalysis) were performed prior to the initiation of dose administration (study week-1) and prior to the scheduled necropsy (study week 13). Individual body weights were recorded weekly, beginning approximately two weeks prior to test article administration (study week-2). Mean body weights and mean body weight changes were calculated for each corresponding interval. Final body weights (fasted) were recorded prior to the scheduled necropsy. […] Gross lesions were also examined from the 2.0 and 6.0 mg/kg/day groups."}},
  "data": [
    {"compound": "Cl.Clc1ccc([C@@]23CNC[C@@H]2C3)cc1Cl", "note": "(single isomer, unassigned) [(+)-1-(3,4-dichlorophenyl)-3-azabicyclo[3.1.0]hexane hydrochloride]", "values": [
      {"measurement": "affinity for the norepinephrine uptake site compared with the (±) compound", "setting": "[1]", "result": "significantly greater affinity"},
      {"measurement": "affinity for the serotonin uptake site compared with the (±) compound", "setting": "serotonin transporter", "result": "significantly greater affinity"},
      {"measurement": "AUC(0-t)", "setting": "[2]; female", "result": 14400, "unit": "ng·h/mL"},
      {"measurement": "AUC(0-t)", "setting": "[2]; male", "result": 8130, "unit": "ng·h/mL"},
      {"measurement": "exposure versus dose", "setting": "[2]", "result": "increased dose-dependently"},
      {"measurement": "mean total cumulative body weight change, lower than control", "setting": "in vivo; 20 mg/kg/day, end of 13-week study", "result": 65, "unit": "%"},
      {"measurement": "mean food consumption, lower than control", "setting": "in vivo; 20 mg/kg/day, first week of dose administration", "result": 23, "unit": "%"},
      {"measurement": "mean body weight, lower than control", "setting": "in vivo; 20 mg/kg/day, study week 13", "result": 9, "unit": "%"},
      {"measurement": "weekly food consumption, MEAN", "setting": "in vivo; 2.0 MG/KG/DAY group, WEEK −1 TO 0 (before dosing)", "result": "295.", "unit": "C/ANIMAL/DAY"},
      {"measurement": "weekly food consumption, MEAN", "setting": "in vivo; 2.0 MG/KG/DAY, WEEK 0 TO 1", "result": "291.", "unit": "C/ANIMAL/DAY"},
      {"measurement": "weekly food consumption, MEAN", "setting": "in vivo; 2.0 MG/KG/DAY, WEEK 1 TO 2", "result": "319.", "unit": "C/ANIMAL/DAY"},
      {"measurement": "weekly food consumption, MEAN", "setting": "in vivo; 2.0 MG/KG/DAY, WEEK 2 TO 3", "result": "361.", "unit": "C/ANIMAL/DAY"},
      {"measurement": "weekly food consumption, MEAN", "setting": "in vivo; 2.0 MG/KG/DAY, WEEK 3 TO 4", "result": "358.", "unit": "C/ANIMAL/DAY"},
      {"measurement": "weekly food consumption, MEAN", "setting": "in vivo; 2.0 MG/KG/DAY, WEEK 4 TO 5", "result": "369.", "unit": "C/ANIMAL/DAY"},
      {"measurement": "weekly food consumption, MEAN", "setting": "in vivo; 2.0 MG/KG/DAY, WEEK 5 TO 6", "result": "360.", "unit": "C/ANIMAL/DAY"},
      {"measurement": "weekly food consumption, MEAN", "setting": "in vivo; 2.0 MG/KG/DAY, WEEK 6 TO 7", "result": "393.", "unit": "C/ANIMAL/DAY"},
      {"measurement": "weekly food consumption, MEAN", "setting": "in vivo; 2.0 MG/KG/DAY, WEEK 7 TO 8", "result": "360.", "unit": "C/ANIMAL/DAY"},
      {"measurement": "weekly food consumption, MEAN", "setting": "in vivo; 2.0 MG/KG/DAY, WEEK 8 TO 9", "result": "383.", "unit": "C/ANIMAL/DAY"},
      {"measurement": "weekly food consumption, MEAN", "setting": "in vivo; 2.0 MG/KG/DAY, WEEK 9 TO 10", "result": "375.", "unit": "C/ANIMAL/DAY"},
      {"measurement": "weekly food consumption, MEAN", "setting": "in vivo; 2.0 MG/KG/DAY, WEEK 10 TO 11", "result": "389.", "unit": "C/ANIMAL/DAY"},
      {"measurement": "weekly food consumption, MEAN", "setting": "in vivo; 2.0 MG/KG/DAY, WEEK 12 TO 13", "result": "355.", "unit": "C/ANIMAL/DAY"},
      {"measurement": "weekly food consumption, MEAN", "setting": "in vivo; 6.0 MG/KG/DAY group, WEEK −1 TO 0 (before dosing)", "result": "275.", "unit": "C/ANIMAL/DAY"},
      {"measurement": "weekly food consumption, MEAN", "setting": "in vivo; 6.0 MG/KG/DAY, WEEK 0 TO 1", "result": "247.", "unit": "C/ANIMAL/DAY"},
      {"measurement": "weekly food consumption, MEAN", "setting": "in vivo; 6.0 MG/KG/DAY, WEEK 1 TO 2", "result": "288.", "unit": "C/ANIMAL/DAY"},
      {"measurement": "weekly food consumption, MEAN", "setting": "in vivo; 6.0 MG/KG/DAY, WEEK 2 TO 3", "result": "307.", "unit": "C/ANIMAL/DAY"},
      {"measurement": "weekly food consumption, MEAN", "setting": "in vivo; 6.0 MG/KG/DAY, WEEK 3 TO 4", "result": "307.", "unit": "C/ANIMAL/DAY"},
      {"measurement": "weekly food consumption, MEAN", "setting": "in vivo; 6.0 MG/KG/DAY, WEEK 4 TO 5", "result": "350.", "unit": "C/ANIMAL/DAY"},
      {"measurement": "weekly food consumption, MEAN", "setting": "in vivo; 6.0 MG/KG/DAY, WEEK 5 TO 6", "result": "374.", "unit": "C/ANIMAL/DAY"},
      {"measurement": "weekly food consumption, MEAN", "setting": "in vivo; 6.0 MG/KG/DAY, WEEK 6 TO 7", "result": "381.", "unit": "C/ANIMAL/DAY"},
      {"measurement": "weekly food consumption, MEAN", "setting": "in vivo; 6.0 MG/KG/DAY, WEEK 7 TO 8", "result": "356.", "unit": "C/ANIMAL/DAY"},
      {"measurement": "weekly food consumption, MEAN", "setting": "in vivo; 6.0 MG/KG/DAY, WEEK 8 TO 9", "result": "368.", "unit": "C/ANIMAL/DAY"},
      {"measurement": "weekly food consumption, MEAN", "setting": "in vivo; 6.0 MG/KG/DAY, WEEK 9 TO 10", "result": "360.", "unit": "C/ANIMAL/DAY"},
      {"measurement": "weekly food consumption, MEAN", "setting": "in vivo; 6.0 MG/KG/DAY, WEEK 10 TO 11", "result": "367.", "unit": "C/ANIMAL/DAY"},
      {"measurement": "weekly food consumption, MEAN", "setting": "in vivo; 6.0 MG/KG/DAY, WEEK 11 TO 12", "result": "357.", "unit": "C/ANIMAL/DAY"},
      {"measurement": "weekly food consumption, MEAN", "setting": "in vivo; 6.0 MG/KG/DAY, WEEK 12 TO 13", "result": "331.", "unit": "C/ANIMAL/DAY"},
      {"measurement": "weekly food consumption, MEAN", "setting": "in vivo; 20 MG/KG/DAY group, WEEK −1 TO 0 (before dosing)", "result": "275.", "unit": "C/ANIMAL/DAY"},
      {"measurement": "weekly food consumption, MEAN", "setting": "in vivo; 20 MG/KG/DAY, WEEK 0 TO 1", "result": "212.* C/ANIMAL/DAY"},
      {"measurement": "weekly food consumption, MEAN", "setting": "in vivo; 20 MG/KG/DAY, WEEK 1 TO 2", "result": "295.", "unit": "C/ANIMAL/DAY"},
      {"measurement": "weekly food consumption, MEAN", "setting": "in vivo; 20 MG/KG/DAY, WEEK 2 TO 3", "result": "314.", "unit": "C/ANIMAL/DAY"},
      {"measurement": "weekly food consumption, MEAN", "setting": "in vivo; 20 MG/KG/DAY, WEEK 3 TO 4", "result": "337.", "unit": "C/ANIMAL/DAY"},
      {"measurement": "weekly food consumption, MEAN", "setting": "in vivo; 20 MG/KG/DAY, WEEK 4 TO 5", "result": "356.", "unit": "C/ANIMAL/DAY"},
      {"measurement": "weekly food consumption, MEAN", "setting": "in vivo; 20 MG/KG/DAY, WEEK 5 TO 6", "result": "331.", "unit": "C/ANIMAL/DAY"},
      {"measurement": "weekly food consumption, MEAN", "setting": "in vivo; 20 MG/KG/DAY, WEEK 6 TO 7", "result": "328.", "unit": "C/ANIMAL/DAY"},
      {"measurement": "weekly food consumption, MEAN", "setting": "in vivo; 20 MG/KG/DAY, WEEK 7 TO 8", "result": "325.", "unit": "C/ANIMAL/DAY"},
      {"measurement": "weekly food consumption, MEAN", "setting": "in vivo; 20 MG/KG/DAY, WEEK 8 TO 9", "result": "375.", "unit": "C/ANIMAL/DAY"},
      {"measurement": "weekly food consumption, MEAN", "setting": "in vivo; 20 MG/KG/DAY, WEEK 9 TO 10", "result": "322.", "unit": "C/ANIMAL/DAY"},
      {"measurement": "weekly food consumption, MEAN", "setting": "in vivo; 20 MG/KG/DAY, WEEK 10 TO 11", "result": "350.", "unit": "C/ANIMAL/DAY"}
    ]}
  ]
}
